Laboratory results as given in US20250034153A1, “TRIAZOLOPYRIMIDINES AS A2A / A2B INHIBITORS” (Incyte Corporation, priority 2019, published 2025).

Legend:
Adenosine A2A = Adenosine A2A (Homo sapiens (Human), UniProt P29274); assay: A2A Tag-lite HTRF assay (Example C); conditions: Tag-lite Adenosine A2A labeled cells, Red antagonist fluorescent ligand 12.5 nM, one-site competitive binding; read-out: A2A_Ki
Procedure: Example C. A2A Tag-Lite® HTRF Assay
Assays were conducted in black low volume 384-well polystyrene plates (Greiner 784076-25) in a final volume of 10 μL. Test compounds were first serially diluted in DMSO and 100 nl added to the plate wells before the addition of other reaction components. The final concentration of DMSO was 1%. Tag-lite® Adenosine A2A labeled cells (CisBio C1TT1A2A) were diluted 1:5 into Tag-lite buffer (CisBio LABMED) and spun 1200 g for 5 mins. The pellet was resuspended at a volume 10.4× the initial cell suspension volume in Tag-lite buffer, and Adenosine A2A Receptor Red antagonist fluorescent ligand (CisBio L0058RED) added at 12.5 nM final concentration. 10 ul of the cell and ligand mix was added to the assay wells and incubated at room temperature for 45 minutes before reading on a PHERAstar FS plate reader (BMG Labtech) with HTRF 337/620/665 optical module. Percent binding of the fluorescent ligand was calculated; where 100 nM of A2A antagonist control ZM 241385 (Tocris 1036) displaces the ligand 100% and 1% DMSO has 0% displacement. The % binding data versus the log of the inhibitor concentration was fitted to a one-site competitive binding model (GraphPad Prism version 7.02) where the ligand constant=12.5 nM and the ligand Kd=1.85 nM.

[1] = biological target: human adenosine A2B receptor (Homo sapiens (Human), UniProt P29275); assay: Adenosine A2B receptor cyclic AMP GS assay (Example B); type: cell-based; conditions: HEK-293 cells expressing human A2B, agonist NECA 12 nM, cAMP accumulation (FRET); read-out: A2B_cAMP_EC50
Procedure: Example B. Adenosine A2B Receptor Cyclic AMP GS Assay
Stably transfected HEK-293 cells expressing the human adenosine A2B receptor (Perkin Elmer) were maintained in MEM culture medium with 10% FBS and 100 μg/ml Geneticin (Life Technologies). 18 to 24 hours prior to assay, geneticin was removed from culture. The cisbio cAMP-GS Dynamic kit utilizing the FRET (Fluorescence Resonance Energy Transfer) technology was used to measure cAMP accumulation in the cells. Compounds of the present disclosure at an appropriate concentration were mixed with 10000 cells/well in white 96 well half area plates (Perkin Elmer) for 30 min at RT gently shaking. Agonist, NECA (R&D Technologies) at 12 nM was added to each well for 60 min at RT gently shaking. Detection reagents, d2-labeled cAMP (acceptor) and anti-cAMP cryptate (donor) were added to each well for 60 min at RT gently shaking. Plates were read on Pherastar (BMG Labtech), fluorescence ratio 665/620 was calculated and EC50 determination was performed by fitting the curve of percent of control versus the log of the compound concentration using GraphPad Prism.

Adenosine A2A, sequence (P29274 whole entry): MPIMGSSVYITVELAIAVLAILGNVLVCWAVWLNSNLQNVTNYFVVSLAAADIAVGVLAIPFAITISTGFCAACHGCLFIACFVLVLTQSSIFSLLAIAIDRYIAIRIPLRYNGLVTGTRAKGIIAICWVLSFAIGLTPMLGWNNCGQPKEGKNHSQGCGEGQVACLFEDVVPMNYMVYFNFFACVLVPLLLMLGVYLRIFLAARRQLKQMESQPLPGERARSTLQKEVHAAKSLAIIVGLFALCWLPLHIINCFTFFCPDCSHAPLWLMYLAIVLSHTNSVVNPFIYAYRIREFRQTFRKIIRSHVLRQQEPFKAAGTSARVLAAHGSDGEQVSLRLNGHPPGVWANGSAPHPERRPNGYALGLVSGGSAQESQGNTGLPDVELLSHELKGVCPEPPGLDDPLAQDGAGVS
human adenosine A2B receptor, sequence (P29275 whole entry): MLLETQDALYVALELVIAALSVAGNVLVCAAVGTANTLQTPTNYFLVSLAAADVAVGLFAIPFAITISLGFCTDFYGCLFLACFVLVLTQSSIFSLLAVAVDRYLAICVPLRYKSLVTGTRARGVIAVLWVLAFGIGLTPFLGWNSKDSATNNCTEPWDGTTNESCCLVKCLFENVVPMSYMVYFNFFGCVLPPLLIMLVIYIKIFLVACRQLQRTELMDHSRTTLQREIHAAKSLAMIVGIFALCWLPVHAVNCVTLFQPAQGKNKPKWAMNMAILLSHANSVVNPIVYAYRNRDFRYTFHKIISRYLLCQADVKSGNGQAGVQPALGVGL

| Structure (SMILES) | Ki (Adenosine A2A) [nM] | EC50 [1] [nM] |
| --- | --- | --- |
| Cc1cccnc1CNc1nc2c(-c3ccc(=O)n(C)c3)c(-c3cccc(C#N)c3F)nc(N)n2n1 [Example 23, 3-(5-amino-8-(1-methyl-6-oxo-1,6-dihydropyridin-3-yl)-2-(((3-methylpyridin-2-yl)methyl)amino)-[1,2,4]triazolo[1,5-c]pyrimidin-7-yl)-2-fluorobenzonitrile] | ≤ 10 | 10 to 100 |
| CCn1cc(-c2c(-c3cccc(C#N)c3F)nc(N)n3nc(NCc4ncccc4C)nc23)ccc1=O [Example 24, 3-(5-amino-8-(1-ethyl-6-oxo-1,6-dihydropyridin-3-yl)-2-(((3-methylpyridin-2-yl)methyl)amino)-[1,2,4]triazolo[1,5-c]pyrimidin-7-yl)-2-fluorobenzonitrile] | ≤ 10 | 10 to 100 |
| Cc1cccnc1CNc1nc2c(-c3ccc(=O)n(C)n3)c(-c3cccc(C#N)c3F)nc(N)n2n1 [Example 25, 3-(5-amino-8-(1-methyl-6-oxo-1,6-dihydropyridazin-3-yl)-2-(((3-methylpyridin-2-yl)methyl)amino)-[1,2,4]triazolo[1,5-c]pyrimidin-7-yl)-2-fluorobenzonitrile] | ≤ 10 | ≤ 10 |
| COc1cc(-c2c(-c3cccc(C#N)c3F)nc(N)n3nc(NCc4ncccc4C)nc23)cc(C)n1 [Example 26, 3-(5-amino-8-(2-methoxy-6-methylpyridin-4-yl)-2-(((3-methylpyridin-2-yl)methyl)amino)-[1,2,4]triazolo[1,5-c]pyrimidin-7-yl)-2-fluorobenzonitrile] | ≤ 10 | 10 to 100 |
| Cn1nc(-c2c(-c3cccc(C#N)c3)nc(N)n3nc(Cc4ccccn4)nc23)ccc1=O [Example 27, 3-(5-amino-8-(1-methyl-6-oxo-1,6-dihydropyridazin-3-yl)-2-(pyridin-2-ylmethyl)-[1,2,4]triazolo[1,5-c]pyrimidin-7-yl)benzonitrile] | ≤ 10 | ≤ 10 |
| N#Cc1cccc(-c2nc(N)n3nc(OCc4ncccc4F)nc3c2-c2ccncn2)c1 [Example 28, 3-(5-amino-2-((3-fluoropyridin-2-yl)methoxy)-8-(pyrimidin-4-yl)-[1,2,4]triazolo[1,5-c]pyrimidin-7-yl)benzonitrile] | ≤ 10 | ≤ 10 |
| Cn1cc(-c2c(-c3cccc(C#N)c3)nc(N)n3nc(OCc4ncccc4F)nc23)ccc1=O [Example 29, 3-(5-amino-2-((3-fluoropyridin-2-yl)methoxy)-8-(1-methyl-6-oxo-1,6-dihydropyridin-3-yl)-[1,2,4]triazolo[1,5-c]pyrimidin-7-yl)benzonitrile] | ≤ 10 | ≤ 10 |
| Cn1nc(-c2c(-c3cccc(C#N)c3)nc(N)n3nc(OCc4ncccc4F)nc23)ccc1=O [Example 30, 3-(5-amino-2-((3-fluoropyridin-2-yl)methoxy)-8-(1-methyl-6-oxo-1,6-dihydropyridazin-3-yl)-[1,2,4]triazolo[1,5-c]pyrimidin-7-yl)benzonitrile] | ≤ 10 | ≤ 10 |
| Cc1cc(-c2c(-c3cccc(C#N)c3)nc(N)n3nc(OCc4ncccc4F)nc23)cc(C)n1 [Example 32, 3-(5-amino-8-(2,6-dimethylpyridin-4-yl)-2-((3-fluoropyridin-2-yl)methoxy)-[1,2,4]triazolo[1,5-c]pyrimidin-7-yl)benzonitrile] | ≤ 10 | 10 to 100 |
| COc1cc(-c2c(-c3cccc(C#N)c3)nc(N)n3nc(OCc4ncccc4F)nc23)cc(C)n1 [Example 33, 3-(5-amino-2-((3-fluoropyridin-2-yl)methoxy)-8-(2-methoxy-6-methylpyridin-4-yl)-[1,2,4]triazolo[1,5-c]pyrimidin-7-yl)benzonitrile] | ≤ 10 | ≤ 10 |
| N#Cc1cccc(-c2nc(N)n3nc(Nc4ccccn4)nc3c2-c2ccncn2)c1 [Example 34, 3-(5-amino-2-(pyridin-2-ylamino)-8-(pyrimidin-4-yl)-[1,2,4]triazolo[1,5-c]pyrimidin-7-yl)benzonitrile] | ≤ 10 | ≤ 10 |
| Cc1cccc(Nc2nc3c(-c4ccncn4)c(-c4cccc(C#N)c4)nc(N)n3n2)n1 [Example 40, 3-(5-amino-2-((6-methylpyridin-2-yl)amino)-8-(pyrimidin-4-yl)-[1,2,4]triazolo[1,5-c]pyrimidin-7-yl)benzonitrile] | ≤ 10 | ≤ 10 |
| N#Cc1cccc(-c2nc(N)n3nc(COc4ccccn4)nc3c2-c2ccncn2)c1 [Example 41, 3-(5-amino-2-((pyridin-2-yloxy)methyl)-8-(pyrimidin-4-yl)-[1,2,4]triazolo[1,5-c]pyrimidin-7-yl)benzonitrile] | ≤ 10 | ≤ 10 |
| N#Cc1cccc(-c2nc(N)n3nc(COc4ncccc4C#N)nc3c2-c2ccncn2)c1 [Example 42, 2-((5-amino-7-(3-cyanophenyl)-8-(pyrimidin-4-yl)-[1,2,4]triazolo[1,5-c]pyrimidin-2-yl)methoxy)nicotinonitrile] | ≤ 10 | ≤ 10 |
| Cn1cc(-c2c(-c3cccc(C#N)c3)nc(N)n3nc(COc4ncccc4C#N)nc23)ccc1=O [Example 43, 2-((5-amino-7-(3-cyanophenyl)-8-(1-methyl-6-oxo-1,6-dihydropyridin-3-yl)-[1,2,4]triazolo[1,5-c]pyrimidin-2-yl)methoxy)nicotinonitrile] | ≤ 10 | ≤ 10 |
| Cn1nc(-c2c(-c3cccc(C#N)c3)nc(N)n3nc(COc4ncccc4C#N)nc23)ccc1=O [Example 44, 2-((5-amino-7-(3-cyanophenyl)-8-(1-methyl-6-oxo-1,6-dihydropyridazin-3-yl)-[1,2,4]triazolo[1,5-c]pyrimidin-2-yl)methoxy)nicotinonitrile] | ≤ 10 | 10 to 100 |
| Cc1cc(-c2c(-c3cccc(C#N)c3)nc(N)n3nc(COc4ncccc4C#N)nc23)cc(C)n1 [Example 46, 2-((5-amino-7-(3-cyanophenyl)-8-(2,6-dimethylpyridin-4-yl)-[1,2,4]triazolo[1,5-c]pyrimidin-2-yl)methoxy)nicotinonitrile] | ≤ 10 | 100 to 1000 |
| COc1cc(-c2c(-c3cccc(C#N)c3)nc(N)n3nc(COc4ncccc4C#N)nc23)cc(C)n1 [Example 47, 2-((5-amino-7-(3-cyanophenyl)-8-(2-methoxy-6-methylpyridin-4-yl)-[1,2,4]triazolo[1,5-c]pyrimidin-2-yl)methoxy)nicotinonitrile] | ≤ 10 | 10 to 100 |
| N#Cc1cccc(-c2nc(N)n3nc(Cn4nnc(-c5ccccn5)n4)nc3c2-c2ccncn2)c1 [Example 50, 3-(5-amino-2-((5-(pyridin-2-yl)-2H-tetrazol-2-yl)methyl)-8-(pyrimidin-4-yl)-[1,2,4]triazolo[1,5-c]pyrimidin-7-yl)benzonitrile] | ≤ 10 | ≤ 10 |
| N#Cc1cccc(-c2nc(N)n3nc(Cn4nnnc4-c4ncccn4)nc3c2-c2ccncn2)c1 [Example 51, 3-(5-amino-2-((5-(pyrimidin-2-yl)-1H-tetrazol-1-yl)methyl)-8-(pyrimidin-4-yl)-[1,2,4]triazolo[1,5-c]pyrimidin-7-yl)benzonitrile] | ≤ 10 | ≤ 10 |
| N#Cc1cccc(-c2nc(N)n3nc(Cn4nnnc4-c4ccncn4)nc3c2-c2ccncn2)c1 [Example 52, 3-(5-amino-8-(pyrimidin-4-yl)-2-((5-(pyrimidin-4-yl)-1H-tetrazol-1-yl)methyl)-[1,2,4]triazolo[1,5-c]pyrimidin-7-yl)benzonitrile] | ≤ 10 | ≤ 10 |
| N#Cc1cccc(-c2nc(N)n3nc(Cn4nnnc4-c4cccnc4)nc3c2-c2ccncn2)c1 [Example 53, 3-(5-amino-2-((5-(pyridin-3-yl)-1H-tetrazol-1-yl)methyl)-8-(pyrimidin-4-yl)-[1,2,4]triazolo[1,5-c]pyrimidin-7-yl)benzonitrile] | ≤ 10 | ≤ 10 |
| N#Cc1cccc(-c2nc(N)n3nc(Cn4nnnc4-c4ccncc4)nc3c2-c2ccncn2)c1 [Example 54, 3-(5-amino-2-((5-(pyridin-4-yl)-1H-tetrazol-1-yl)methyl)-8-(pyrimidin-4-yl)-[1,2,4]triazolo[1,5-c]pyrimidin-7-yl)benzonitrile] | ≤ 10 | ≤ 10 |
